Laboratory results as given in US8309550B2, “Kinase inhibitors and their use as pharmaceutical agents” (Shanghai Genomics, Inc., priority 2011, dated 2012).
Where two headings read alike, the source gives them in different places.

How the values were obtained:
[1] = Pharmacokinetic determination, rat IV/PO study; assay type: in vivo; settings: for MRT inf: read-out: MRT(0-∞)
Experimental: Male Sprague-Dawley rats were maintained on food and water ad libitum. They were housed in an individual ventilated caging system. The test compound at a dose of 5 mg/kg and 20 mg/kg was given i.v. and orally to SD rats respectively (3 animals per group). The appropriate quantity compound with free base (Wt.: 346.1) was accurately weighted into a tube and dissolved in NMP, vortexed to get a clear solution. 0.015N HCl in Saline was added and the solution was vortexed to yield a clear and colorless solution at 1 mg/mL for both intravenous and oral administration. The concentration of the test compound in the dosing solution was reconfirmed by HPLC method. […] Plasma samples were collected from retro-orbital puncture at pre-dose and 0.083, 0.25, 0.5, 1, 2, 4, 6, 8, and 24 hours post-dose. All samples and the dose formulation were stored at −20° C. until bioanalysis. The concentrations of the test compound in plasma were determined using a high performance liquid chromatography/mass spectrometry (HPLC/MS/MS) method.

[2] = system: Xenograft tumor models (HT-29, H460, Molt-4, PC-3M, HL60); experiment: Xenograft studies with human tumor cell lines; assay type: in vivo, BALB/c nude mice; settings: i.p, qd, 21 days, dosage from 12.5 mg/kg to 100 mg/kg; significant with p<0.05 (T-test)
Experimental: Female BALB/c nude mice from SHANGHAI SLAC LABORATORY ANIMAL CO with age of 5 to 6 weeks and body weight of 19 to 20 g were used in the study. Autoclaved water and irradiated food were provided ad libitum, and animals were maintained on a 12-hour light and 12-hour dark cycle. Cages, bedding, and water bottles were autoclaved before use and changed weekly. The health of all animals was determined by daily gross observation of experimental animals, and analyses of blood samples of sentinel animals housed on shared shelf racks. All animals were allowed to acclimate and recover from any shipping-related stress for a minimum of 72 hours before experimental use. All animal experiments were conducted according to the guidelines of Chinese.
Xenograft tumor models were established with human tumor cell lines. […] Tumor growth was monitored twice per week until the tumor reached to a volume of 100 mm^3. […]
Mortality checks were conducted daily. Body weight of the mice was determined twice a week. […] Weight loss was calculated as percentage change in mean group body weight using the following formula: [(W−W0)/W0]×100, where ‘W’ represents mean body weight of the treated group at a particular day and ‘W0’ represents mean body weight of the same treated group at initiation of treatment. Tumor volumes (in mm3) were calculated after 21 days drug administration. […]

[3] = male, Sprague-Dawley, plasma, IV (5 mg/kg)
[4] = male, Sprague-Dawley, plasma, PO (20 mg/kg)

SMILES	F* ([1]; PO (20 mg/kg) vs IV (5 mg/kg)) [%]	AUC(0-inf) [1, 3] [ng·h/mL]	AUC(0-t) [1, 3] [ng·h/mL]	Cmax [1, 3] [ng/mL]	Tmax [1, 3] [min]	clearance [1, 3] [mL/min/kg]	half-life [1, 3] [min]	MRT inf [1, 3] [min]	Vd ([1]; male, Sprague-Dawley, plasma, IV (5 mg/kg), read-out: Vz) [L/kg]	AUC(0-inf) [1, 4] [ng·h/mL]	AUC(0-t) [1, 4] [ng·h/mL]	Cmax [1, 4] [ng/mL]	Tmax [1, 4] [min]	half-life [1, 4] [min]	MRT inf [1, 4] [min]	oral availability and t 1/2 after oral administration (in words) ([1]; oral administration)	anti-tumor activities in xenograft mice [2]
CCn1cc(-c2ccnc(Nc3cccc(S(N)(=O)=O)c3)n2)c2cccnc21 [Compound 18, 3-(4-(1-Ethyl-1H-pyrrolo[2,3-b]pyridin-3-yl)pyrimidin-2-ylamino)benzenesulfonamide]	67.51	545	543	963	4.98	156	42	40.2	9.6	1490	1470	895	34.8	74.4	100	This result showed that compound 18 has good oral availability and t 1/2 after oral administration.	–
CCCn1cc(-c2ccnc(Nc3ccc(C)c(S(=O)(=O)N4CCOCC4)c3)n2)c2ccncc21 [Compound 102, N-(4-Methyl-3-(morpholinosulfonyl)phenyl)-4-(1-propyl-1H-pyrrolo[2,3-c]pyridin-3-yl)pyrimidin-2-amine]	–	–	–	–	–	–	–	–	–	–	–	–	–	–	–	–	showed anti-tumor activities
